In patent US20250376468A1, “PYRAZOLO[1,5-a]PYRIDINE DERIVATIVES FOR TREATING TRPM3-MEDIATED DISORDERS” (Katholieke Universiteit Leuven, priority 2022, published 2025):

Molecular target: T1, mouse TRPM3α2 (mTRPM3) ion channel (Mus musculus, UniProt J9SQF3)
T1 construct: expressed in transfected cells; host or cells: flip-in HEK293 (Flp-In HEK293) overexpressing mTRPM3alpha2
Assay: TRPM3 ion channel driven Ca2+ uptake, Fluo-4 AM assay, stimulated with pregnenolone sulfate (50 μM)
Format: cell-based
Settings: TRPM3 overexpressing flip-in HEK293 cells, PS 50 μM, 2.4 mM Ca2+
Experimental: In order to monitor the inhibition of the mouse TRPM3α2 (mTRPM3) ion channel by the compounds of the invention, a cellular system making use of an mTRPM3alpha2 or hTRPM3 overexpressing cell line (flip-in HEK293) was used. The TRPM3 channel was stimulated/opened with Pregnenolone sulfate (PS) (50 μM) which results in Ca^2+ influx.
For mTRPM3, the intracellular Ca^2+ was measured with a Calcium responsive dye, Fluor-4 AM ester (Invitrogen). Cells were cultured until a confluence of 80-90%, washed with Versene (Invitrogen) and detached from the surface by a short incubation with 0.05% Trypsin (Invitrogen). The […] was stopped by the addition of complete cell culture medium (DMEM, glutamax, 10% FCS, NEAA, Pen-Strep). Cells were collected and resuspended in Krebs buffer without Calcium at RT.
Prior the cell seeding (±2000 cells/well into a black, 384 well plate (Greiner)) the diluted compound was added in the assay plate, together with the PS dissolved in Krebs buffer containing Calcium. […] Directly after cell addition the plates were read on an Envision fluorescence reader (Perkin Elmer) by an Excitation of 485 nm and emission at 535 nm.
Channel inhibition was calculated compared to a non-PS stimulated control versus a condition stimulated with PS (50 μM) with vehicle. The ability of the compounds of the invention to inhibit this activity was determined as: Percentage inhibition=[1−((RFU determined for sample with test compound present−RFU determined for sample with positive control inhibitor) divided by (RFU determined in the presence of vehicle−RFU determined for sample with positive control inhibitor))]*100.
The activities of the Example compounds cpd 001-091 tested are depicted in the table below. All tested compounds show an activity in the Fluo-4 AM assay. The activity ranges A, B and C refer to IC50 values in the Fluo-4 AM assay as follows: “A”: IC50<1 μM; “B”: 1 μM≤IC50≤20 μM and “C”: IC50>20 μM.

T1 sequence (J9SQF3 1-1709 isoform J9SQF3-12): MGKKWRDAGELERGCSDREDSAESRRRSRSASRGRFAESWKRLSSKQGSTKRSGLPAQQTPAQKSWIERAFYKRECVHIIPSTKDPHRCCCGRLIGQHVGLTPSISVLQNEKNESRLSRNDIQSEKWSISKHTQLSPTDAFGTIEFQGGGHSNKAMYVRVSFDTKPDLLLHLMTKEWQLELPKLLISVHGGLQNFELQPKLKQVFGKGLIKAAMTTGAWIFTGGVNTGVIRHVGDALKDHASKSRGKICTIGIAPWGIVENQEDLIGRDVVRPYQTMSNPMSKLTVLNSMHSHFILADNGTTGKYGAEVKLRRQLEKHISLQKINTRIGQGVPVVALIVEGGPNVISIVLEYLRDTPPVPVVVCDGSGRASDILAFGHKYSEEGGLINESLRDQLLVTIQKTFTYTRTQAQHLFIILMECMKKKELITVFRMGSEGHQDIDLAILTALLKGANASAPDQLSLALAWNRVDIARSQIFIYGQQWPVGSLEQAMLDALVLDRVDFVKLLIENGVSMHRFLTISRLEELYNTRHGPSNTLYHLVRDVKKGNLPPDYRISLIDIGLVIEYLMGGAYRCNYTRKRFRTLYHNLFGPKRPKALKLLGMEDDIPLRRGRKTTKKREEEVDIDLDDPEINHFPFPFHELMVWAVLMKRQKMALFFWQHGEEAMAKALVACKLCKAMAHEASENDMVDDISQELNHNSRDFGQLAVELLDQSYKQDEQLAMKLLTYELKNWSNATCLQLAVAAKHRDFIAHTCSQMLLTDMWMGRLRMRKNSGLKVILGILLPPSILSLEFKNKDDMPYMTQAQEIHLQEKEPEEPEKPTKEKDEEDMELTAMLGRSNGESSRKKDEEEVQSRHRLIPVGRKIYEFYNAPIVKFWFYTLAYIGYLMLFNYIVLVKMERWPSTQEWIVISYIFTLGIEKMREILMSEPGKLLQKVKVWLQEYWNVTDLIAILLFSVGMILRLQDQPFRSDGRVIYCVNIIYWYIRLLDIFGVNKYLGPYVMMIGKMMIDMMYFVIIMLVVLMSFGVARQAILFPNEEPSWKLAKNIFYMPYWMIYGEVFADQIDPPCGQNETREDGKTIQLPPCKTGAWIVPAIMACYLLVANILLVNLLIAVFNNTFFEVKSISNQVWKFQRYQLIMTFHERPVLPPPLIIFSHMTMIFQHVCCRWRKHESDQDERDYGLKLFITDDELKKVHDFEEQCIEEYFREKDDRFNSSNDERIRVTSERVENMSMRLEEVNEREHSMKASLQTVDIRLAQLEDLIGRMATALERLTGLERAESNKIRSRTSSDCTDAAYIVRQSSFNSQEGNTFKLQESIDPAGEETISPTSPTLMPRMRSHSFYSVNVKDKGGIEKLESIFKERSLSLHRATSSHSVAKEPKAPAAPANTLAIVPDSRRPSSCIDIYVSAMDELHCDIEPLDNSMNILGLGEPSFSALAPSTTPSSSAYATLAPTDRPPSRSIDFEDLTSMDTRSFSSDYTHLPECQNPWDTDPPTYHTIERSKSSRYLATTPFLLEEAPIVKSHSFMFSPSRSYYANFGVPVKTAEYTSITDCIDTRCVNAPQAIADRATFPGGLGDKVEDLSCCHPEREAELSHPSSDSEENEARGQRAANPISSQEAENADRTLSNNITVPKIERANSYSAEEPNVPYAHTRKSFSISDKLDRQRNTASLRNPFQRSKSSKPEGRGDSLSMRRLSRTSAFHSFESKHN

Compound | IC50 [µM]
Cc1nn2ccc(OCc3ccccn3)cc2c1C(=O)N[C@@]1(CO)C[C@H]1C(F)F (relative stereo) [Cpd 072 - En1, N-[cis-2-(difluoromethyl)-1-(hydroxymethyl)cyclopropyl]-2-methyl-5-[(pyridin-2-yl)methoxy]pyrazolo[1,5-a]pyridine-3-carboxamide] | 1 to 20
Cc1nn2ccc(OCc3ccccn3)cc2c1C(=O)N[C@@]1(CO)C[C@H]1C(F)F (relative stereo) [Cpd 072 - En2, N-[cis-2-(difluoromethyl)-1-(hydroxymethyl)cyclopropyl]-2-methyl-5-[(pyridin-2-yl)methoxy]pyrazolo[1,5-a]pyridine-3-carboxamide] | > 20
Cc1nn2ccc(OCc3ccccn3)cc2c1C(=O)NC(C)(CO)CC(F)F (single isomer, unassigned) [Cpd 038 - En1, N-(4,4-difluoro-1-hydroxy-2-methylbutan-2-yl)-2-methyl-5-[(pyridin-2-yl)methoxy]pyrazolo[1,5-a]pyridine-3-carboxamide] | 1 to 20
Cc1nn2ccc(OCc3ccccn3)cc2c1C(=O)NC(C)(CO)CC(F)F (single isomer, unassigned) [Cpd 038 - En2, N-(4,4-difluoro-1-hydroxy-2-methylbutan-2-yl)-2-methyl-5-[(pyridin-2-yl)methoxy]pyrazolo[1,5-a]pyridine-3-carboxamide] | < 1
Cc1nn2ccc(OCc3ccccn3)cc2c1C(=O)NC1CNCCC1(F)F (single isomer, unassigned) [Cpd 050 - En1, N-(4,4-difluoropiperidin-3-yl)-2-methyl-5-[(pyridin-2-yl)methoxy]pyrazolo[1,5-a]pyridine-3-carboxamide] | > 20
Cc1nn2ccc(OCc3ccccn3)cc2c1C(=O)NC1CNCC(F)(F)C1 (single isomer, unassigned) [Cpd 052 - En1, N-(5,5-difluoropiperidin-3-yl)-2-methyl-5-[(pyridin-2-yl)methoxy]pyrazolo[1,5-a]pyridine-3-carboxamide] | 1 to 20
Cc1nn2ccc(OCc3ccccn3)cc2c1C(=O)NC1CNCC(F)(F)C1 (single isomer, unassigned) [Cpd 052 - En2, N-(5,5-difluoropiperidin-3-yl)-2-methyl-5-[(pyridin-2-yl)methoxy]pyrazolo[1,5-a]pyridine-3-carboxamide] | > 20
Cc1nn2ccc(OCc3ccccn3)cc2c1C(=O)NC(C)(CO)C(N)=O (single isomer, unassigned) [Cpd 089 - En1, 3-hydroxy-2-methyl-2-({2-methyl-5-[(pyridin-2-yl)methoxy]pyrazolo[1,5-a]pyridin-3-yl}formamido)propanamide] | > 20
Cc1nn2ccc(OCc3ccccn3)cc2c1C(=O)NC(C)(CO)C(N)=O (single isomer, unassigned) [Cpd 089 - En2, 3-hydroxy-2-methyl-2-({2-methyl-5-[(pyridin-2-yl)methoxy]pyrazolo[1,5-a]pyridin-3-yl}formamido)propanamide] | < 1

Second part, the compound after the results:

IC50 [µM] | Compound
< 1 | CNC(=O)C(C)(CO)NC(=O)c1c(C)nn2ccc(OCc3ccccc3F)cc12 (single isomer, unassigned) [Cpd 011 - En1, 2-({5-[(2-fluorophenyl)methoxy]-2-methylpyrazolo[1,5-a]pyridin-3-yl}formamido)-3-hydroxy-N,2-dimethylpropanamide]
1 to 20 | CNC(=O)C(C)(CO)NC(=O)c1c(C)nn2ccc(OCc3ccccc3F)cc12 (single isomer, unassigned) [Cpd 011 - En2, 2-({5-[(2-fluorophenyl)methoxy]-2-methylpyrazolo[1,5-a]pyridin-3-yl}formamido)-3-hydroxy-N,2-dimethylpropanamide]
1 to 20 | Cc1nn2ccc(OCc3ccccc3F)cc2c1C(=O)NC1(CO)CCNC1=O (single isomer, unassigned) [Cpd 018 - En1, 5-[(2-fluorophenyl)methoxy]-N-[3-(hydroxymethyl)-2-oxopyrrolidin-3-yl]-2-methylpyrazolo[1,5-a]pyridine-3-carboxamide]
< 1 | Cc1nn2ccc(OCc3ccccc3F)cc2c1C(=O)NC1(CO)CCNC1=O (single isomer, unassigned) [Cpd 018 - En2, 5-[(2-fluorophenyl)methoxy]-N-[3-(hydroxymethyl)-2-oxopyrrolidin-3-yl]-2-methylpyrazolo[1,5-a]pyridine-3-carboxamide]
< 1 | Cc1nn2ccc(OCc3ccccc3Cl)cc2c1C(=O)NC(C)(CO)C(N)=O (single isomer, unassigned) [Cpd 019 - En1, 2-({5-[(2-chlorophenyl)methoxy]-2-methylpyrazolo[1,5-a]pyridin-3-yl}formamido)-3-hydroxy-2-methylpropanamide]
1 to 20 | Cc1nn2ccc(OCc3ccccc3Cl)cc2c1C(=O)NC(C)(CO)C(N)=O (single isomer, unassigned) [Cpd 019 - En2, 2-({5-[(2-chlorophenyl)methoxy]-2-methylpyrazolo[1,5-a]pyridin-3-yl}formamido)-3-hydroxy-2-methylpropanamide]
< 1 | Cc1nn2ccc(OCc3ccccc3F)cc2c1C(=O)NC(C)(CO)C(N)=O (single isomer, unassigned) [Cpd 020 - En1, 2-({5-[(2-fluorophenyl)methoxy]-2-methylpyrazolo[1,5-a]pyridin-3-yl}formamido)-3-hydroxy-2-methylpropanamide]
1 to 20 | Cc1nn2ccc(OCc3ccccc3F)cc2c1C(=O)NC(C)(CO)C(N)=O (single isomer, unassigned) [Cpd 020 - En2, 2-({5-[(2-fluorophenyl)methoxy]-2-methylpyrazolo[1,5-a]pyridin-3-yl}formamido)-3-hydroxy-2-methylpropanamide]
1 to 20 | Cc1nn2ccc(OCc3ccccc3F)cc2c1C(=O)N(C)C(C)(CO)C(N)=O (single isomer, unassigned) [Cpd 024 - En1, 2-(1-{5-[(2-fluorophenyl)methoxy]-2-methylpyrazolo[1,5-a]pyridin-3-yl}-N-methylformamido)-3-hydroxy-2-methylpropanamide]
1 to 20 | Cc1nn2ccc(OCc3ccccc3F)cc2c1C(=O)N(C)C(C)(CO)C(N)=O (single isomer, unassigned) [Cpd 024 - En2, 2-(1-{5-[(2-fluorophenyl)methoxy]-2-methylpyrazolo[1,5-a]pyridin-3-yl}-N-methylformamido)-3-hydroxy-2-methylpropanamide]
1 to 20 | Cc1nn2ccc(OCc3ccccn3)cc2c1C(=O)NC1CNCCC1(F)F (single isomer, unassigned) [Cpd 050 - En2, N-(4,4-difluoropiperidin-3-yl)-2-methyl-5-[(pyridin-2-yl)methoxy]pyrazolo[1,5-a]pyridine-3-carboxamide]
< 1 | CCC(CO)(NC(=O)c1c(C)nn2ccc(OCc3ccccc3F)cc12)C(N)=O (stereo not shown) [Cpd 001, 2-({5-[(2-fluorophenyl)methoxy]-2-methylpyrazolo[1,5-a]pyridin-3-yl}formamido)-2-(hydroxymethyl)butanamide]
1 to 20 | Cc1nn2ccc(OCc3ccccc3F)cc2c1C(=O)NC(C)(CO)CO [Cpd 002, N-(1,3-dihydroxy-2-methylpropan-2-yl)-5-[(2-fluorophenyl)methoxy]-2-methylpyrazolo[1,5-a]pyridine-3-carboxamide]
